This is an account of results in patent US12419870B2, “Compositions and methods for immune cell modulation in adoptive immunotherapies” (Fate Therapeutics, Inc., priority 2016, dated 2025).

In one experiment the test system is CD8 T cells. Put plainly: CD27 cell surface expression on CAR-transduced CD8 T cells by flow cytometry. The format is cell-based, human. To be noted: 20 nM rapa, 10 μM dmPGE2 or both; day 8; two donors; relative to vehicle (DMSO). On the technique in general: In flow cytometry, cells or beads pass a laser one at a time.
Another experiment concerns Nalm6 tumor cells. Put plainly: In vitro serial killing assay of CAR-T cells co-cultured with tumor cells. The conditions noted are these: three rounds of in vitro killing. It counts as cell-based, human.
The next experiment has as its system CD8 CAR-T cells. Description: Exhaustion marker (PD-1, Tim-3) expression on CAR-T cells by flow cytometry. It counts as cell-based, human. To be noted: 20 nM rapa, 10 μM dmPGE2 or both; two donors; relative to vehicle. From the text:
T cell dysfunction due to ‘exhaustion’ is a state that can preclude adequate control of cancer or infection.

Experiment [1] has as its system CD8+ T-cells. Description: Genome-wide expression on Human Transcriptome Array microarray chips. The conditions noted are these: 20 nM rapa, 10 μM dmPGE2 or both.
Protocol: (§5) In order to perform these studies, isolated CD8 T cells were activated in bulk on day 0 using CTS (Cell Therapy Systems) Dynabeads™ CD3/CD28 (Thermo Fisher Scientific, Waltham, MA) in T cell media supplemented with IL-2. On day 1, cells were transduced with the CAR Construct 1 shown in FIG. 2 and cell density was adjusted to 0.5×10^6/ml and 10^6 cells were seeded into 12 well plates in the presence of vehicle, 20 nM rapa, 10 μM dmPGE2 or both compounds at the same concentrations. On day 4, cells were transferred into 6-well plates and 2 ml of media was added to each well. On day 6 another 2 ml of media was added to each well. On day 8, cells were analyzed on a flow cytometer for cell surface expression of CD27.
For experiment [2], the system named is CD8+ T-cells. Put plainly: Gene panel expression changes on Affymetrix human transcriptome arrays. The format is cell-based. The conditions noted are these: fold change relative to vehicle treatment.
Protocol: In order to perform these studies, isolated CD8 T cells were activated in bulk on day 0 using CTS (Cell Therapy Systems) Dynabeads™ CD3/CD28 (Thermo Fisher Scientific, Waltham, MA) in T cell media supplemented with IL-2. On day 1, cells were transduced with the CAR Construct 1 shown in FIG. 2 and cell density was adjusted to 0.5×10^6/ml and 10^6 cells were seeded into 12 well plates in the presence of vehicle, 20 nM rapa, 10 μM dmPGE2 or both compounds at the same concentrations. On day 4, cells were transferred into 6-well plates and 2 ml of media was added to each well. On day 6 another 2 ml of media was added to each well.
The RNA was analyzed on Affymetrix human transcriptome arrays and fold changes (relative to vehicle treatment) of the genes in the panel were determined.
Another experiment concerns viable CD4+ population. Put plainly: In vitro T cell culture compound screen, flow cytometry for cells co-expressing CCR7 and CD62L in CD4+ cells. The format is cell-based, human. To be noted: 10 μM, about 6 days, anti-CD3/anti-CD28 beads; hit criteria: Z-score > +2 for percent or relative absolute number of CCR7+CD62L+ cells. An excerpt:
(§1) In Vitro T Cell Culture. Fresh leukopaks (AllCells, Alameda, CA) were obtained from healthy donors, from which T cells were negatively selected using the EasySep Human T Cell Enrichment Kit (Stem Cell Technologies, Vancouver, Canada). The freshly isolated T cells were aliquoted and cryopreserved. On the day the screens were initiated, T cells were thawed and washed into X-Vivo 15 with 5% human AB serum, IL-2, pen/strep, and additional supplements. Cells were dispensed into flat-bottom 384-well plates at 5×10^5 cells/ml with anti-CD3/Anti-CD28 dynabeads (ThermoFisher, Waltham, MA) at a 3:1 bead-to-cell ratio. Individual compounds were added at a final concentration of 10 μM to each well from column 3 to column 22 of each plate. Positive and negative controls were added to additional wells. Cells were incubated for about 6 days at 37 degrees with 5% CO2.
(§2) Flow Cytometry. On Day 6 of culture, cells were stained with a fixable viability marker and fluorophore-conjugated antibodies: CD3, CD4, CD8, CD45RA, CD45RO, CD62L, CCR7, CD27, and CD122 (BD Biosciences, San Jose, CA; and BioLegend, San Diego, CA). Fluorescent absolute counting beads (Spherotech, Lake Forest, IL) were added just prior to acquisition. Data acquisition was performed on a BD Fortessa X-20 (BD Biosciences) and data were analyzed using Treestar software (FlowJo, Ashland, OR) and Spotfire (Tibco, Boston, MA).
(§3) These cells are characterized by expression of CCR7 and CD62L. Therefore, cells co-expressing both of these identifying markers were evaluated. Within the viable CD4+ population and viable CD8+ population, the percent of cells co-expressing CCR7 and CD62L was determined. The expression of either CD62L or CCR7 on T cells, as indicative of the desired T cell subsets, have been described as having favorable functional characteristics for CAR-T cell therapy, and potentially other adoptive T cell therapies.
(§4) The number of events in each of these gates relative to the number of absolute counting beads in each sample was calculated, defining a relative measure of the absolute number of naïve, stem cell memory, or central memory T cells within the CD4+ and/or CD8+ populations. A z-Score relative to the screened compound samples within each 384-well plate was calculated for each of these four values: 1) percent CCR7+CD62L+ in CD4+, 2) percent CCR7+CD62L+ in CD8+, 3) absolute relative number of CCR7+CD62L+ in CD4+, and 4) absolute relative number of CCR7+CD62L+ in CD8+(FIGS. 1A and 1i). Z-scores were also calculated for the percent viability of all cells within each sample and the relative absolute number of cells within each sample. A “Z-Score” is a statistical measurement of a score's relationship to the mean in a group of scores. A Z-score of 0 means the score is the same as the mean. A Z-score can also be positive or negative, indicating whether it is above or below the mean and by how many standard deviations.

The test system of another experiment is viable CD8+ population. Description: In vitro T cell culture compound screen, flow cytometry for cells co-expressing CCR7 and CD62L in CD8+ cells. The format is cell-based, human. To be noted: 10 μM, about 6 days, anti-CD3/anti-CD28 beads; hit criteria: Z-score > +2 for percent or relative absolute number of CCR7+CD62L+ cells.
Excerpt: as §1, §2, §3, §4

The subject of another experiment is K562-CD19. Description: Secondary tumor rechallenge of mice that survived primary tumor challenge. To be noted: 21 day post challenge with secondary tumor. The format is in vivo, NSG mice.

Protocol for CD8 T cells: as §5
Excerpt for Nalm6 tumor cells: An in vitro serial killing assay, where CAR-T cells are allowed to “clear” tumor cells in vitro over multiple rounds, is a model that can assess CAR-T expansion in the presence of tumor cells that express the antigen recognized by the CAR. […] After thawing, the CAR-T cells were co-cultured with Nalm6 tumor cells that express endogenous CD19 and transgenic mKate2, a far-red fluorescent protein. Expression of eGFP in the CAR-T cells and mKate2 in the Nalm6 target cells allows easy and reliable identification and counting of both cell types in the serial killing assay. Prior to starting each round of killing, cell numbers were adjusted so that the same ratio of CAR-T cell to Nalm6 target cell was maintained across the CAR-T cell cultures generated from different compound treatments.

For the molecule `CCCCC(C)(C)[C@H](O)/C=C/[C@H]1[C@H](O)CC(=O)[C@@H]1C/C=C\CCCC(=O)O` [dmPGE2, 16,16-dimethyl Prostaglandin E2], the “CD27 expression, relative MFI (vehicle defined as 1)” value with CD8 T cells is “no increase”. In the experiment with Nalm6 tumor cells, the “clearing of target cells over time by previously treated CAR-T cells” value is listed as “successfully cleared target cells”. In the experiment with CD8 CAR-T cells, the PD-1 expression entry is “decreased” and the Tim-3 expression entry is reported as “no effect”. Further, in the experiment with CD8+ T-cells [1], the “total number of genes down-regulated more than 2 fold compared to vehicle control” value is 38 and the “total number of genes up-regulated more than 2 fold compared to vehicle control” value is listed as 71. Moreover, the BLIMP-1 expression result in the experiment with CD8+ T-cells [2] is listed as “slightly upregulated”.
Consider `Oc1cccc(-c2nc(N3CCOCC3)c3oc4ncccc4c3n2)c1` [PI-103], for which the “CD4 Hit” value in the experiment on viable CD4+ population is “CD4”. Also, the “CD8 Hit” value with viable CD8+ population was “CD8”. For the same molecule, the “mice with no detectable tumor” value in the experiment with K562-CD19 is reported as 60%.
